Assay: xn = mol fraction of the nth substance listed
Conditions: 100 kPa, Liquid; for speed of sound: Frequency=3 MHz, Sing-around technique in a fixed-path interferometer; for mass density: Vibrating tube method

CCCCOCC(C)O (stereo not given) [1-butoxy-2-propanol] + CCCO
Conditions	mass density, 293.15 K [kg/m3]	mass density, 298.15 K [kg/m3]	speed of sound, 293.15 K [m/s]	speed of sound, 298.15 K [m/s]	speed of sound, 303.15 K [m/s]
x1 = 0.0573	812.915	808.937	1230.8	1213.8	1197.1
x1 = 0.1001	818.814	814.76	1235.7	1218.8	1202
x1 = 0.1558	825.901	821.803	1241.5	1224.8	1208
x1 = 0.2031	831.228	827.109	1246.3	1229.3	1212.5
x1 = 0.2532	836.415	832.273	1250.7	1233.6	1216.8
x1 = 0.3033	841.124	836.955	1254.6	1237.5	1220.5
x1 = 0.4046	849.477	845.264	1261.2	1243.9	1226.8
x1 = 0.5048	856.464	852.232	1266.3	1248.9	1231.7
x1 = 0.6055	862.441	858.152	1270.3	1252.9	1235.6
x1 = 0.7052	867.521	863.197	1273.2	1255.7	1238.4
x1 = 0.807	872.037	867.684	1275.7	1258.3	1240.8
x1 = 0.8546	873.936	869.566	1276.8	1259.3	1241.8
x1 = 0.9041	875.766	871.424	1277.7	1260.2	1242.6
x1 = 0.9537	877.527	873.128	1278.5	1260.8	1243.2
x1 = 1	879.031	874.632	1279	1260.9	1242.9

Reference: the NIST ThermoML archive (doi:10.1016/j.jct.2014.07.019)
